Source: paper PMC12442099 (ACS Infectious Diseases, 2025)

What was measured:
Assay type in all cases: cell-based
[1] = test system: Rcs cell envelope stress response in Escherichia coli; assay: Rcs stress reporter assay, HTS format, dose-response curves; details: for Emax: read-out: Max. effect (%); for EC50: read-out: pEC50 (converted)
Method: We adapted the reporter assay based on the Rcs stress system for HTS in a screening program at the ELF as the first bacterial phenotypic screen used in this setting. , The assay was performed in a 1536-well format using 25 μM PMBN as a reference (set at 100% effect).
The ELF screened their extensive and diverse library consisting of >500,000 small molecules at a concentration of 10 μM. The assay window (S/B) and Z’ values remained stable (2.0–15.2 and 0.50–0.90, respectively) throughout the screening campaign. The detailed standard screening procedure of the ELF is outlined elsewhere. An overview of the selection process of the screening campaign performed here is outlined in Figure . Initially, 340 compounds with an effect ≥20% of the reference compound PMBN were considered biologically active. Usually, up to 1% of the input library is selected for confirmatory, dose–response, orthogonal and deselection assays. Because the number of biological actives identified in this assay was well below the 1% limit, no orthogonal assays were performed. Instead, all compounds were reordered and tested as dilution series in the Rcs assay to generate dose–response curves (DRCs). Each compound’s pEC50 (−log of EC50, defined as the concentration (mol/L) at which 50% effect is achieved) was determined, and compounds with a pEC50 ≥ 4.7 were selected for further analysis. Next, the compounds were subjected to a mammalian cell-based cytotoxicity assay to exclude toxic compounds that may have a generic effect on membrane integrity. Compounds that reduced mammalian cell viability by 50% were considered cytotoxic. The qualified hit list (QHL) was then generated following triaging based on LC-MS analysis and pEC50 values.
Overnight cultures (ONCs) were prepared by inoculating 5 mL medium from glycerol stocks and incubating the culture for 16–18 h. ONCs were then diluted to an OD600 of 0.05 and grown until an OD600 of 0.3–0.4 was reached.
Assay robustness was confirmed by testing its sensitivity to assay-interfering agents, including colored, aggregating and fluorescent compounds. […] For HTS, bacteria were diluted 50x in prewarmed medium. Fifteen nL of assay compounds (10 μM), DMSO (0.25%), or the reference compound polymyxin B nonapeptide (PMBN) at 25 μM were added to 1536 well plates. Next, 6 μL culture aliquots were added to assay plates containing compounds. Plates were briefly centrifuged for 1 min at 150 x g. Plates were incubated at 37 °C with high humidity and fluorescence (Ex./Em. λ: 485/528 nm) was measured at T = 0 and T = 150 min using a ClarioStar plate reader (BMG Labtech). For data analysis, T = 0 values were subtracted from T = 150 values to calculate Z-score and % effect compared to the reference compound.
Dose–response curves of the 340 initial active compounds were determined following the preparation of serial dilutions (20 nM–20 μM; 7 points, √10). The % effect compared to the reference compound PMBN was calculated and plotted for each compound dilution. The resulting plots were used to calculate pEC50 (-log(EC50), with EC50 being determined as the concentration at which a 50% effect is observed).

[2] = test system: Rcs stress response in E. coli MC4100 (WT, FQR, GEPR); assay: Rcs stress reporter assay in MC4100 wildtype and resistant mutants; details: EC80 concentrations
Description: Serial passaging of E. coli MC4100 in the presence of increasing concentrations of lomefloxacin or gepotidacin yielded resistant variants of E. coli MC4100. We used MC4100 to raise resistance, because unlike the screening strain TOP10F’, this strain has a functional SOS stress response, which has been implicated in developing resistance against quinolones. Compounds also elicited a robust Rcs stress response in E. coli MC4100, allowing for this strain to be used for stress assays.
4 Rcs stress induced by EC80 concentrations of (A) lomefloxacin, (B) gepotidacin, (C) A2, and (D) B1 in wildtype (WT), fluoroquinolone resistant (FQR) or gepotidacin resistant (GEPR) bacteria. Graphs show the fold change in fluorescence adjusted for bacterial growth as determined by OD600. Error bars indicate the standard deviation of triplicate samples. Data are representative of three independent experiments with similar results. […]
For lower throughput analysis under laboratory conditions, cultures grown to OD600 of 0.3–0.4 were diluted to a final concnetration of 0.05 OD600 units/mL in black, clear-bottom 96-well plates (Greiner Bio-One B.V.). Plates were incubated in a Biotek HTX or H1 plate reader (Agilent Technologies) at 37 °C with continuous shaking. Kinetic studies were performed by measuring OD600 and fluorescence (Ex./Em. Λ: 485/528 nm) every 20 min for 10h. For end point measurements, fluorescence was measured at T = 0 and once more at T = 150 min.

E. coli TOP10F’ = assay: NPN uptake assay (outer membrane permeability); details: 1 h, 10 μM NPN
Method: To investigate the effect of our quinolone hits on membrane permeability, we performed a 1-N- phenylnaphthylamine NPN uptake assay (Figure ), as described previously. NPN is a hydrophobic fluorophore that is unable to cross the OM under normal conditions.
6 Effect of compounds (A) A2 and (B) B1 on membrane integrity analyzed by NPN permeability. Polymyxin B was used at 1 μM and PMBN at 4 μM as membrane permeabilizing control compounds. Data represent the average relative fluorescence values of three independent experiments performed in triplicate. Error bars represent standard deviation of three independent experiments. Data were analyzed using a One-Way ANOVA with Dunnett’s multiple comparisons. **: p = 0.0017; ****: p < 0.0001.
ONC of E. coli TOP10F’ grown in LB were diluted to OD600 = 0.1 and subsequently grown until OD600 0.5 was reached. Bacterial cells were then pelleted at 1,000g for 10 min and resuspended in assay buffer (5 mM HEPES + 20 mM glucose, pH 7.2) to 1.0 OD600 units/ml. The cell suspension was then added to a black, clear bottom 96-well plate (Greiner Bio-One) at a final concentration of 0.5 OD600 units/ml. […] NPN fluorescence (Ex./Em. λ 355, 420) was measured after 1h incubation at room temperature. Relative fluorescence was calculated following the correction of NPN fluorescence in the absence of compound: NPNuptake=[Fobs−Fb]/[Fcontrol−Fb]

Compound	Emax [1] [%]	EC50 [1] [µM]	Rcs stress in FQR (gyrA S83L) mutant [2]	NPN relative fluorescence (membrane permeability) (E. coli TOP10F’)	Rcs stress in GEPR mutant [2]
CC(C)(C)n1cc(C(=O)O)c(=O)c2cc(F)c(N3CC4CC3CN4)nc21 (stereo not drawn) [A2]	26.6	0.107	lacked Rcs stress	significant increase in relative fluorescence at 4 and 16 μM	–
O=C1COc2ccc(CNC3CCN(CC4Cc5c(F)cc(F)c6ccc(=O)n4c56)CC3)nc2N1 (stereo not drawn) [B1]	53.3	0.282	still exhibited Rcs stress	did not exhibit an increase in fluorescence	did not show Rcs stress
